Experimental data taken from US4945055A, “Human chorionic gonadotropin releasing factor” (Board of Regents, University of Texas System, priority 1986, dated 1990).
pKd: −log10 of the molar value.

Legend:
[1] = test system: human chorionic gonadotropin releasing factor (hCG-RF), glycoprotein purified from human term placenta, peptidase activity degrading GnRH; assay: Loss of GnRH immunoreactivity on incubation with hCG-RF (GnRH-RIA after Sephadex G-150); assay type: biochemical; conditions: hCG-RF 41 ug, GnRH 40 ng, 24 h at 4° C.
Method: The effect of purified hCG-RF on GnRH immunoreactivity was studied. […] Chromatography of 0.1 ml of the incubate on Sephadex G-150 (1×20 cm in 0.01M TRIS, 0.001M DTT) followed, collecting 1 ml fraction. Immunoreactive GnRH was determined by GnRH-RIA.

[2] = target: placental receptor recognizing synthetic GnRH; conditions: read-out: dissociation constant of the placental receptor for synthetic GnRH; cited from earlier work

For `N=C(N)c1ccc(N)cc1` [para-amino-benzamidine], the “reversal of the loss of GnRH immunoreactivity effected by incubation with hCG-RF” value ([1]; 175 mM para-amino-benzamidine added with the buffer) was “totally reversed”.
In the case of `CC(C)C[C@H](NC(=O)CNC(=O)[C@H](Cc1ccc(O)cc1)NC(=O)[C@H](CO)NC(=O)[C@H](Cc1c[nH]c2ccccc12)NC(=O)[C@H](Cc1c[nH]cn1)NC(=O)[C@@H]1CCC(=O)N1)C(=O)N[C@@H](CCCNC(=N)N)C(=O)N1CCC[C@H]1C(=O)NCC(N)=O` [synthetic GnRH, pyro-glu-his-trp-ser-tyr-gly-leu-arg-pro-gly-NH2], the pKd [2] is listed as 7.00.
With bacitracin the “reversal of the loss of GnRH immunoreactivity effected by incubation with hCG-RF” value ([1]; 5000 unit bacitracin added with the buffer) was “totally reversed”.
